Laboratory results: patent US20240150321A1, “PYRAZOLYLSULFONAMIDE COMPOUNDS AND THEIR USE IN THERAPY” (HOTSPOT THERAPEUTICS, INC., priority 2022, published 2024)
Like-named read-outs stand apart in the source and are kept apart here.

What was measured:
[1] = target: Avi-tagged FL MALT-1 (Homo sapiens (Human), UniProt Q9UDY8); assay: MALT-1 Fluorogenic Peptide Cleavage Assay (MALT1 inhibition assay); type: biochemical; conditions: Ac-LRSR-AMC peptide substrate, 30 min pre-incubation, 90 min reaction at room temperature
How it was run: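 Cleavage of Ac-LRSR-AMC, read as fluorescence at 342/441 nm after 90 min at room temperature, with substrate working stocks of 50 μM (Km) or 280 μM (10×Km). Enzyme, Avi-tagged full-length MALT-1 (40 nM stock), was first pre-incubated 30 min with compound in citrate/HEPES pH 6.89 buffer with TCEP, EDTA, CHAPS and 2% DMSO; IC50 fitted from normalised % inhibition.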

[2] = tested on: NF-kB reporter in Jurkat cells; assay: NF-kB reporter assay in Jurkat cells stimulated with aCD3/aCD28/PMA; type: cell-based; conditions: Homo sapiens, read-out: NF-kB Reporter Assay IC50
How it was run: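 Luminescence (One-Glo) from the NF-kB reporter yielded IC50 values. Stimulation lasted 4 h at 37° C with aCD3, aCD28 and PMA (final 5, 5 and 0.03 […]), after 1 h compound pre-exposure of 25,000 Jurkat cells per well in serum-free RPMI.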

[3] = Jurkat cells, 1 hr compound pre-incubation, aCD3/aCD28/PMA stimulation 4 hr, One-Glo readout

Sequence of Avi-tagged FL MALT-1 (Q9UDY8 whole entry): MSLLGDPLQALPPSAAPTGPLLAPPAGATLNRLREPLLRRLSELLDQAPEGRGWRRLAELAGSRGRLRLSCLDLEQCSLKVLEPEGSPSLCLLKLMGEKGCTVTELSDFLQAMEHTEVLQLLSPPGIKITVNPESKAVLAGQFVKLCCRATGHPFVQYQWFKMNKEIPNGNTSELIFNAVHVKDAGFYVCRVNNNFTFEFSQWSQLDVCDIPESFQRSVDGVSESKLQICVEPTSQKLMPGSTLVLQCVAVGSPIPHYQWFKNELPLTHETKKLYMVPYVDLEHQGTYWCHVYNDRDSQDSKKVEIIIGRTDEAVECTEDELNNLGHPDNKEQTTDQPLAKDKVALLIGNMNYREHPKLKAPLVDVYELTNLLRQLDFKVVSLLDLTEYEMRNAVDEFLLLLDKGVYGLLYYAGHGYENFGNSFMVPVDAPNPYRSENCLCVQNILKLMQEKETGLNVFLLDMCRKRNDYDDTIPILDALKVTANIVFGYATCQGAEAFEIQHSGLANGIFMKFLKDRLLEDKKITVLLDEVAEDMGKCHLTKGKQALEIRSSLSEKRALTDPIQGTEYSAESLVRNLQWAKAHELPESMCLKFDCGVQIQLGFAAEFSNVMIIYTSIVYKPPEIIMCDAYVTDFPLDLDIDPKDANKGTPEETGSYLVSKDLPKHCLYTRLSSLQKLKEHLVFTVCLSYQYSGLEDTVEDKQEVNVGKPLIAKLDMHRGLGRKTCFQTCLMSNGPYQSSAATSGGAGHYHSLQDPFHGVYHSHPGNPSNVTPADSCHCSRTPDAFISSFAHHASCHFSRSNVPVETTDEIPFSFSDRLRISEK

| Structure (SMILES) | IC50 [1] | IC50 [2, 3] | IC50 ([2]; Jurkat) |
| --- | --- | --- | --- |
| O=S(=O)(Nc1cccc2cnn(C(F)F)c12)c1cnn(-c2cc(C(F)F)ccn2)c1 [Compound I-108, N-[1-(difluoromethyl)indazol-7-yl]-1-[4-(difluoromethyl)pyridin-2-yl]pyrazole-4-sulfonamide] | > 2.5 µM | > 2.5 µM | – |
| Cn1ncc2cccc(NS(=O)(=O)c3cnn(-c4cc(C5=CCOC5)ccn4)c3)c21 [Compound I-109, 1-(4-(2,5-Dihydrofuran-3-yl)Pyridin-2-yl)-N-(1-Methyl-1H-Indazol-7-yl)-1H-Pyrazole-4-Sulfonamide] | > 2.5 µM | < 0.4 µM | – |
| O=S(=O)(Nc1cccc2cnn(C(F)F)c12)c1cnn(-c2cc(Cl)ccn2)c1 [Compound I-110, 1-(4-chloropyridin-2-yl)-N-[1-(difluoromethyl)indazol-7-yl]pyrazole-4-sulfonamide] | > 2.5 µM | > 2.5 µM | – |
| Cn1nc(Cl)c2cccc(NS(=O)(=O)c3cnn(-c4cc(C(F)(F)F)ccn4)c3)c21 [Compound I-111, N-(3-chloro-1-methyl-1H-indazol-7-yl)-1-(4-(trifluoromethyl)pyridin-2-yl)-1H-pyrazole-4-sulfonamide] | > 2.5 µM | < 0.4 µM | – |
| Cn1ncc2cccc(NS(=O)(=O)c3cnn(-c4cc(C5(F)CC(F)C5)ccn4)c3)c21 (stereo not drawn) [Compound I-112, 1-(4-(1,3-difluorocyclobutyl)pyridin-2-yl)-N-(1-methyl-1H-indazol-7-yl)-1H-pyrazole-4-sulfonamide] | > 2.5 µM | < 0.4 µM | – |
| Cn1ncc2cccc(NS(=O)(=O)c3cnn(-c4cc(C(C)(C)F)ccn4)c3)c21 [Compound I-113, 1-(4-(2-fluoropropan-2-yl)pyridin-2-yl)-N-(1-methyl-1H-indazol-7-yl)-1H-pyrazole-4-sulfonamide] | > 2.5 µM | < 0.4 µM | – |
| COC(C)(C)c1ccnc(-n2cc(S(=O)(=O)Nc3cccc4cnn(C)c34)cn2)c1 [Compound I-114, 1-(4-(2-Methoxypropan-2-yl)Pyridin-2-yl)-N-(1-Methyl-1H-Indazol-7-yl)-1H-Pyrazole-4-Sulfonamide] | > 2.5 µM | < 0.4 µM | – |
| COc1ccc2cnn(C)c2c1NS(=O)(=O)c1cnn(-c2cc(C(C)(C)C)ccn2)c1 [Compound I-115, 1-(4-(tert-butyl)pyridin-2-yl)-N-(6-methoxy-1-methyl-1H-indazol-7-yl)-1H-pyrazole-4-sulfonamide] | ≤ 0.4 µM | < 0.4 µM | – |
| COC(C)c1ccnc(-n2cc(S(=O)(=O)Nc3cccc4cnn(C)c34)cn2)c1 (stereo not drawn) [Compound I-116, 1-(4-(1-methoxyethyl)pyridin-2-yl)-N-(1-methyl-1H-indazol-7-yl)-1H-pyrazole-4-sulfonamide] | > 2.5 µM | < 0.4 µM | – |
| Cc1cnc(-n2cc(S(=O)(=O)Nc3cccc4cnn(C)c34)cn2)cc1C(F)(F)F [Compound I-117, N-(1-methyl-1H-indazol-7-yl)-1-(5-methyl-4-(trifluoromethyl)pyridin-2-yl)-1H-pyrazole-4-sulfonamide] | 1 to 2.5 µM | < 0.4 µM | – |
| Cn1ncc2cccc(NS(=O)(=O)c3cnn(-c4cc(C5CCOC5)ccn4)c3)c21 (stereo not drawn) [Compound I-118, N-(1-methyl-1H-indazol-7-yl)-1-(4-(tetrahydrofuran-3-yl)pyridin-2-yl)-1H-pyrazole-4-sulfonamide] | > 2.5 µM | < 0.4 µM | – |
| Cn1ncc2cccc(NS(=O)(=O)c3cnn(-c4cc(C5=CCOCC5)ccn4)c3)c21 [Compound I-119, 1-(4-(3,6-Dihydro-2H-Pyran-4-yl)Pyridin-2-yl)-N-(1-Methyl-1H-Indazol-7-yl)-1H-Pyrazole-4-Sulfonamide] | > 2.5 µM | < 0.4 µM | – |
| Cn1ncc2cncc(NS(=O)(=O)c3cnn(-c4cc(C(C)(F)F)ccn4)c3)c21 [Compound I-120, 1-(4-(1,1-Difluoroethyl)Pyridin-2-yl)-N-(1-Methyl-1H-Pyrazolo[4,3-C]Pyridin-7-yl)-1H-Pyrazole-4-Sulfonamide] | > 2.5 µM | > 2.5 µM | – |
| Cn1ncc2cccc(NS(=O)(=O)c3cnn(-c4cc(C(F)(F)F)c(Cl)cn4)c3)c21 [Compound I-121, 1-(5-Chloro-4-(Trifluoromethyl)Pyridin-2-yl)-N-(1-Methyl-1H-Indazol-7-yl)-1H-Pyrazole-4-Sulfonamide] | 0.4 to 1 µM | < 0.4 µM | – |
| Cn1ncc2cccc(NS(=O)(=O)c3cnn(-c4cc(C(F)(F)F)c(F)cn4)c3)c21 [Compound I-122, 1-(5-fluoro-4-(trifluoromethyl)pyridin-2-yl)-N-(1-methyl-1H-indazol-7-yl)-1H-pyrazole-4-sulfonamide] | 0.4 to 1 µM | < 0.4 µM | – |
| Cn1ncc2cccc(NS(=O)(=O)c3cnn(-c4cc(C5CCOCC5)ccn4)c3)c21 [Compound I-123, N-(1-methyl-1H-indazol-7-yl)-1-(4-(tetrahydro-2H-pyran-4-yl)pyridin-2-yl)-1H-pyrazole-4-sulfonamide] | > 2.5 µM | < 0.4 µM | – |
| COc1ncc2cnn(C)c2c1NS(=O)(=O)c1cnn(-c2cc(C3(F)COC3)ccn2)c1 [Compound I-124, 1-(4-(3-fluorooxetan-3-yl)pyridin-2-yl)-N-(6-methoxy-1-methyl-1H-pyrazolo[4,3-c]pyridin-7-yl)-1H-pyrazole-4-sulfonamide] | ≤ 0.4 µM | < 0.4 µM | – |
| COc1ncc2cnn(C)c2c1NS(=O)(=O)c1cnn(-c2cc(C3(OC)COC3)ccn2)c1 [Compound I-125, N-{6-methoxy-1-methylpyrazolo [4,3-c]pyridin-7-yl}-1-[4-(3-methoxyoxetan-3-yl)pyridin-2-yl]pyrazole-4-sulfonamide] | ≤ 0.4 µM | < 0.4 µM | – |
| COc1ncc2cnn(C)c2c1NS(=O)(=O)c1cnn(-c2cc(C(F)F)ccn2)c1 [Compound I-126, 1-[4-(difluoromethyl)pyridin-2-yl]-N-{6-methoxy-1-methylpyrazolo[4,3-c]pyridin-7-yl}pyrazole-4-sulfonamide] | ≤ 0.4 µM | < 0.4 µM | – |
| COc1ncc2cnn(C)c2c1NS(=O)(=O)c1cnn(-c2cc(C(C)(C)C)ccn2)c1 [Compound I-127, 1-(4-(tert-butyl)pyridin-2-yl)-N-(6-methoxy-1-methyl-1H-pyrazolo[4,3-c]pyridin-7-yl)-1H-pyrazole-4-sulfonamide] | ≤ 0.4 µM | < 0.4 µM | – |
| Cn1ncc2cccc(NS(=O)(=O)c3cnn(-c4cc(C5(O)CCOC5)ccn4)c3)c21 (stereo not drawn) [Compound I-128, 1-(4-(3-hydroxytetrahydrofuran-3-yl)pyridin-2-yl)-N-(1-methyl-1H-indazol-7-yl)-1H-pyrazole-4-sulfonamide] | > 2.5 µM | < 0.4 µM | – |
| Cn1ncc2cccc(NS(=O)(=O)c3cnn(-c4cc(C5(O)CCOCC5)ccn4)c3)c21 [Compound I-129, 1-(4-(4-hydroxytetrahydro-2H-pyran-4-yl)pyridin-2-yl)-N-(1-methyl-1H-indazol-7-yl)-1H-pyrazole-4-sulfonamide] | > 2.5 µM | 0.4 to 1 µM | – |
| Cn1ncc2cccc(NS(=O)(=O)c3cnn(-c4cc(C5(F)CCOCC5)ccn4)c3)c21 [Compound I-130, 1-(4-(4-fluorotetrahydro-2H-pyran-4-yl)pyridin-2-yl)-N-(1-methyl-1H-indazol-7-yl)-1H-pyrazole-4-sulfonamide] | > 2.5 µM | < 0.4 µM | – |
| COC1(c2ccnc(-n3cc(S(=O)(=O)Nc4cccc5cnn(C)c45)cn3)c2)CCOCC1 [Compound I-131, 1-(4-(4-methoxytetrahydro-2H-pyran-4-yl)pyridin-2-yl)-N-(1-methyl-1H-indazol-7-yl)-1H-pyrazole-4-sulfonamide] | > 2.5 µM | < 0.4 µM | – |
| COc1ccc2cnn(C)c2c1NS(=O)(=O)c1cnn(-c2cc(C3(OC)CCC3)ccn2)c1 [Compound I-132, N-(6-Methoxy-1-Methyl-1H-Indazol-7-yl)-1-(4-(1-Methoxycyclobutyl)Pyridin-2-yl)-1H-Pyrazole-4-Sulfonamide] | ≤ 0.4 µM | – | < 0.4 µM |
| COc1ccc2cnn(C)c2c1NS(=O)(=O)c1cnn(-c2cc(C(F)F)ccn2)c1 [Compound I-133, 1-(4-(Difluoromethyl)Pyridin-2-yl)-N-(6-Methoxy-1-Methyl-1H-Indazol-7-yl)-1H-Pyrazole-4-Sulfonamide] | ≤ 0.4 µM | < 0.4 µM | – |
| COc1ccc2cnn(C)c2c1NS(=O)(=O)c1cnn(-c2cc(C(C)O)ccn2)c1 (stereo not drawn) [Compound I-134, 1-(4-(1-hydroxyethyl)pyridin-2-yl)-N-(6-methoxy-1-methyl-1H-indazol-7-yl)-1H-pyrazole-4-sulfonamide] | 0.4 to 1 µM | < 0.4 µM | – |
| COc1ccc2cnn(C)c2c1NS(=O)(=O)c1cnn(-c2cc(C(C)(C)O)ccn2)c1 [Compound I-135, 1-(4-(2-hydroxypropan-2-yl)pyridin-2-yl)-N-(6-methoxy-1-methyl-1H-indazol-7-yl)-1H-pyrazole-4-sulfonamide] | 0.4 to 1 µM | < 0.4 µM | – |
| Cn1ncc2ccc(F)c(NS(=O)(=O)c3cnn(-c4cc(C(F)(F)F)ccn4)c3)c21 [Compound I-136, N-(6-fluoro-1-methyl-1H-indazol-7-yl)-1-(4-(trifluoromethyl)pyridin-2-yl)-1H-pyrazole-4-sulfonamide] | 0.4 to 1 µM | 0.4 to 1 µM | – |
| Cc1c(S(=O)(=O)Nc2cccc3cnn(C)c23)cnn1-c1cc(C(F)(F)F)ccn1 [Compound I-137, 5-methyl-N-(1-methyl-1H-indazol-7-yl)-1-(4-(trifluoromethyl)pyridin-2-yl)-1H-pyrazole-4-sulfonamide] | 0.4 to 1 µM | < 0.4 µM | – |
